Like-named read-outs stand apart in the source and are kept apart here.
Key:
Format in all cases: cell-based, HIV-1
[1] = test system: recombinant virus from patient viral RNA (Example 12); assay: Recombinant virus assay (MT4/MTT), patient of Example 12 (therapy history RT and protease inhibitors); conditions: for ratio (1)/(2): Table 8, patient mean IC50 / recIIIB IC50, Example 12
Procedure: (§1) RNA was isolated from 100 μl of plasma according to the method described by Boom, R. et al. (1990, supra), and was reverse transcribed with the GeneAmp reverse transcriptase kit (Perkin Elmer) as described by the manufacturer and using an HIV-1 specific downstream primer (OUT3: 5′-CATTGCTCTCCAATTACTGTGATATTTCTCATC-3′; SEQ ID NO: 1). PCR on reverse transcribed RNA was performed with inner and outer primers as described by Kellam, P. and Larder, B. A. (1994, supra). After chloroform extraction and centrifugation on Centricon 100 columns or centrifugation on anion-exchange spin columns (Quiagen), the isolated PCR product was ready for use in the transfection reactions.
(§2) MT4 cells were subcultured at a density of 250,000 cells/ml before transfection (exponential growth phase). Cells were pelleted and resuspended in phosphate buffered saline (PBS) at a concentration of […]. A 0.8 ml portion (2.5 10E6 cells/ml) was used for each transfection. Transfection was performed with the Bio-Rad Gene pulser making use of 0.4 cm electrode cuvettes. Cells were electroporated in the presence of […] of linearised pHIVΔRT plasmid and approximately 5 μg of RT PCR product at 250SF and 300 V, followed by a 30-min incubation at room temperature. Subsequently, 10 ml of fresh culture medium was added to the cell suspension and incubation was performed at 37° C. in a humidified atmosphere of 5% CO2.
(§3) During 7 to 10 days following the transfection, cells were monitored for the appearance of cytopathogenic effect (CPE). In the absence thereof, cells were subcultured in different flasks. Subsequently, culture supernatants of transfected cells were used to create a stock of recombinant virus and stored in 1.5 ml aliquots at −70° C.
(§4) After titration of the new viruses, the stocks were used for antiviral experiments in the presence of serial dilutions of different HIV inhibitors. Titres of the harvested supematants were determined by limited serial dilution titration of virus in MT4 cells.
(§5) Viruses with a useful titre were used in antiviral experiments. For this purpose, 96-well microtitre plates were filled with 100μl of complete culture medium. Subsequently, stock solutions of compounds were added in 25 μl volumes to series of duplicate wells. HIV- and mock-infected cell samples were included for each drug (or drug combination). Exponentially growing MT4 cells were then transferred to the microtitre plates at a density of 150,000 cells/ml. The cell cultures were then incubated at 37° C. in a humidified atmosphere of 5% CO2. Five days after infection, the viability of the mock- and HIV-infected cells was examined spectrophotometrically by the M1T method (Pauwels, R. et al. J. Virol. Meth. (1988), 20: 309-321) as described in Section 6 below.
(§6) To each well of the microtiter plates, 20 μl of a solution of MTT (7.5 mg/ml in PBS) was added. The plates were further incubated at 37° C. for 1 h. Then, 150 μl of medium was removed without disturbing the MT4 cell clusters containing the formazan crystals. Solubilization of the formazan crystals was achieved by adding 100 μl 5% Triton X-100 in acidified isopropanol (5 ml concentrated HCl per liter solvent). Complete dissolution of the formazan crystals was obtained after the plates had been placed on a plate shaker for 10 min. Finally the absorbances were read at two wavelengths (540 and 690 nm). From these optical density (OD) data, 50% inhibitory (IC50) and 50% cytotoxic (CC50) concentrations were derived.
An HIV infected patient with a therapy history including RT and protease inhibitors donated plasma whose susceptibility to a number of RT inhibitors and protease inhibitors was determined according to the protocol set out in Example 1.

[2] = test system: recombinant virus from patient viral RNA (Example 10, drug-naive patient); assay: Recombinant virus assay (MT4/MTT), drug-naive patient of Example 10; conditions: for IC50: Human immunodeficiency virus 1, Table 6, Example 10 patient virus; for ratio (1)/(2): Table 6, patient mean IC50 / recIIIB IC50, Example 10
Procedure: as §1, §2, §3, §4, §5, §6
A drug-naive HIV-infected patient donated plasma whose susceptibility to a number of RT inhibitors and protease inhibitors was determined according to the protocol set out in Example 1. Recombinant wild type HIV strain recIIIB was used as a reference HIV virus.

[3] = test system: recombinant virus from patient viral RNA (Example 11); assay: Recombinant virus assay (MT4/MTT), patient of Example 11 (therapy history RT and protease inhibitors); conditions: for ratio (1)/(2): Table 7, patient mean IC50 / recIIIB IC50, Example 11
Procedure: as §1, §2, §3, §4, §5, §6
An HIV infected patient with a therapy history including RT and protease inhibitors donated plasma whose susceptibility to a number of RT inhibitors and protease inhibitors was determined according to the protocol set out in Example 1. Recombinant wild type HIV strain recIIIb was used as a reference HIV virus.

[4] = test system: recombinant virus from plasma of HIV-infected individuals on NNRTI long-term monotherapy; assay: Phenotyping of patients on NNRTI long-term monotherapy (Example 13), fold resistance
Procedure: as §4, §5, §6
Plasma samples were obtained from HIV-infected individuals who had been receiving non-nucleoside RT inhibitor (NNRTI) long-term monotherapy. HIV-RNA was extracted, reverse-transcribed and amplified as described in Example 1. Starting from outer PCR material of positive samples, the first 785 nucleotides of the RT gene were amplified and this material was further used for genotyping.
Amino acids changes at these positions are shown for each patient in the following rows. […] The right part of Table 9 presents the fold resistance to different RT inhibitors as determined by the method according to the invention for each of the patients' samples. NNRTI 1 is the non-nucleoside RT inhibitor that was administered to the patients.

[5] = MT4 cells, read-out: Anti-HIV-1 activity IC50 (μM) Exp. 1
[6] = MT4 cells, read-out: Anti-HIV-1 activity IC50 (μM) Exp. 2
[7] = mean, read-out: Anti-HIV-1 activity IC50 (μM) Mean (1)
[8] = Patient 4, no resistance associated mutation
[9] = Patient 5, no resistance associated mutation
[10] = Patient 11, RT mutations M41L, D67N, K70R, K103N, M184V, T215F, K219Q
[11] = Patient 12, RT mutations M41L, T215Y
[12] = Patient 13, RT mutations K101E, K103K/N, E138A, G190G/A
[13] = Patient 16, RT mutations K103N, M184V
[14] = Human immunodeficiency virus 1, MT4, read-out: Anti-HIV-1 activity IC50 (μM) Exp. 1
[15] = Human immunodeficiency virus 1, MT4, read-out: Anti-HIV-1 activity IC50 (μM) Exp. 2
[16] = Human immunodeficiency virus 1, read-out: Anti-HIV-1 activity IC50 (μM) Mean (1)

Row | Structure (SMILES) | ratio (1)/(2) [1] | IC50 [2, 5] [µM] | IC50 [2, 6] [µM] | IC50 [2, 7] [µM] | ratio (1)/(2) [2] | ratio (1)/(2) [3] | FOLD RESISTANCE TO ([4]; Patient 1, RT mutation K103N) [fold] | FOLD RESISTANCE TO ([4]; Patient 2, RT mutation K103S) [fold] | FOLD RESISTANCE TO ([4]; Patient 3, RT mutation K103N) [fold] | FOLD RESISTANCE TO [4, 8] [fold] | FOLD RESISTANCE TO [4, 9] [fold] | FOLD RESISTANCE TO ([4]; Patient 6, RT mutation K103N) [fold] | FOLD RESISTANCE TO ([4]; Patient 7, RT mutation K103S) [fold] | FOLD RESISTANCE TO ([4]; Patient 8, RT mutation K103N) [fold] | FOLD RESISTANCE TO ([4]; Patient 9, RT mutation Y181C) [fold] | FOLD RESISTANCE TO ([4]; Patient 10, RT mutation K103N) [fold] | FOLD RESISTANCE TO [4, 10] [fold] | FOLD RESISTANCE TO [4, 11] [fold] | FOLD RESISTANCE TO [4, 12] [fold] | FOLD RESISTANCE TO ([4]; Patient 14, RT mutation K103N) [fold] | also measured
1 | Cc1cn([C@H]2C[C@H](N=[N+]=[N-])[C@@H](CO)O2)c(=O)[nH]c1=O [AZT, zidovudine] | 88 | 0.019 | 0.019 | 0.019 | 0.5 | 0.3 | 1 | 1 | 0.4 | 0.3 | 1 | 1 | 1 | 1 | 2 | 0.4 | 94 | 28 | 1 | 1 | susceptibility of the patient's HIV strain (in words) ([1]; Example 12 patient, conclusion from Table 8): decreased susceptibility; IC50 ([1]; Human immunodeficiency virus 1, Table 8, Example 12 patient virus, MT4 cells, read-out: Anti-HIV-1 activity IC50 (μM) Exp. 1): 3.83 µM; IC50 ([1]; Human immunodeficiency virus 1, Table 8, Example 12 patient virus, MT4 cells, read-out: Anti-HIV-1 activity IC50 (μM) Exp. 2): 3.35 µM; IC50 ([1]; Human immunodeficiency virus 1, Table 8, Example 12 patient virus, mean, read-out: Anti-HIV-1 activity IC50 (μM) Mean (1)): 3.59 µM; IC50 ([3]; Human immunodeficiency virus 1, Table 7, Example 11 patient virus, MT4 cells, read-out: Anti-HIV-1 activity IC50 (μM) Exp. 2): 0.015 µM; IC50 ([3]; Human immunodeficiency virus 1, Table 7, Example 11 patient virus, mean, read-out: Anti-HIV-1 activity IC50 (μM) Mean (1)): 0.015 µM; FOLD RESISTANCE TO ([4]; Patient 15, RT mutation K103N): 2 fold; FOLD RESISTANCE TO [4, 13]: 1 fold; FOLD RESISTANCE TO ([4]; Patient 17, RT mutation K103N): 1 fold; FOLD RESISTANCE TO ([4]; Patient 18, RT mutation K103S): 1 fold; FOLD RESISTANCE TO ([4]; Patient 19, RT mutation K103N): 1 fold; FOLD RESISTANCE TO ([4]; Patient 20, RT mutation A98G): 0.4 fold; FOLD RESISTANCE TO ([4]; Patient 21, RT mutation K103N): 1 fold; FOLD RESISTANCE TO ([4]; Patient 22, RT mutation V108I): 1 fold; FOLD RESISTANCE TO ([4]; Patient 23, RT mutation K103N): 0.2 fold; FOLD RESISTANCE TO ([4]; Patient 24, RT mutation K101Q): 1 fold
2 | Nc1ccn([C@@H]2CS[C@H](CO)O2)c(=O)n1 [3TC, lamivudine] | 22 | 1.53 | 1.72 | 1.62 | 0.4 | 19 | 1 | 0.4 | 1 | 0.1 | 0.4 | 0.3 | 0.04 | 1 | 1 | 0.1 | >8 | 2 | 1 | 1 | IC50 [1, 14]: > 100 µM; IC50 [1, 15]: > 100 µM; IC50 [1, 16]: > 100 µM; IC50 [3, 14]: > 100 µM; IC50 [3, 15]: 94 µM; IC50 [3, 16]: ≥ 97 µM; FOLD RESISTANCE TO ([4]; Patient 15, RT mutation K103N): 1 fold; FOLD RESISTANCE TO [4, 13]: >8 fold; FOLD RESISTANCE TO ([4]; Patient 17, RT mutation K103N): 1 fold; FOLD RESISTANCE TO ([4]; Patient 18, RT mutation K103S): 1 fold; FOLD RESISTANCE TO ([4]; Patient 19, RT mutation K103N): 1 fold; FOLD RESISTANCE TO ([4]; Patient 20, RT mutation A98G): 1 fold; FOLD RESISTANCE TO ([4]; Patient 21, RT mutation K103N): 0.4 fold; FOLD RESISTANCE TO ([4]; Patient 22, RT mutation V108I): 0.4 fold; FOLD RESISTANCE TO ([4]; Patient 23, RT mutation K103N): 0.2 fold; FOLD RESISTANCE TO ([4]; Patient 24, RT mutation K101Q): 1 fold

— US6528251B2, “Method of managing the chemotherapy of patients who are HIV positive based on the phenotypic drug sensitivity of human HIV strains” (Virco N.V., priority 1996, dated 2003)
